Measurements from patent US20240246992A1, “MACROCYCLIC LRRK2 KINASE INHIBITORS” (LES LABORATOIRES SERVIER, priority 2021, published 2024).

target: human recombinant LRRK2 protein (Homo sapiens, UniProt Q5S007); assay: LRRK2 kinase activity assay (ADP-Glo, LRRKtide peptide); assay type: biochemical; conditions: human recombinant LRRK2 wt, LRRKtide peptide and ATP, 1 h at 37° C.
In short: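 Human recombinant LRRK2 reacted with LRRKtide peptide and ATP for 1 h at 37 °C in the presence of compound. ADP formed measured by ADP-Glo luminescence; IC50 fitted from 10 concentrations run in duplicate.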

human recombinant LRRK2 protein, sequence (Q5S007 whole entry): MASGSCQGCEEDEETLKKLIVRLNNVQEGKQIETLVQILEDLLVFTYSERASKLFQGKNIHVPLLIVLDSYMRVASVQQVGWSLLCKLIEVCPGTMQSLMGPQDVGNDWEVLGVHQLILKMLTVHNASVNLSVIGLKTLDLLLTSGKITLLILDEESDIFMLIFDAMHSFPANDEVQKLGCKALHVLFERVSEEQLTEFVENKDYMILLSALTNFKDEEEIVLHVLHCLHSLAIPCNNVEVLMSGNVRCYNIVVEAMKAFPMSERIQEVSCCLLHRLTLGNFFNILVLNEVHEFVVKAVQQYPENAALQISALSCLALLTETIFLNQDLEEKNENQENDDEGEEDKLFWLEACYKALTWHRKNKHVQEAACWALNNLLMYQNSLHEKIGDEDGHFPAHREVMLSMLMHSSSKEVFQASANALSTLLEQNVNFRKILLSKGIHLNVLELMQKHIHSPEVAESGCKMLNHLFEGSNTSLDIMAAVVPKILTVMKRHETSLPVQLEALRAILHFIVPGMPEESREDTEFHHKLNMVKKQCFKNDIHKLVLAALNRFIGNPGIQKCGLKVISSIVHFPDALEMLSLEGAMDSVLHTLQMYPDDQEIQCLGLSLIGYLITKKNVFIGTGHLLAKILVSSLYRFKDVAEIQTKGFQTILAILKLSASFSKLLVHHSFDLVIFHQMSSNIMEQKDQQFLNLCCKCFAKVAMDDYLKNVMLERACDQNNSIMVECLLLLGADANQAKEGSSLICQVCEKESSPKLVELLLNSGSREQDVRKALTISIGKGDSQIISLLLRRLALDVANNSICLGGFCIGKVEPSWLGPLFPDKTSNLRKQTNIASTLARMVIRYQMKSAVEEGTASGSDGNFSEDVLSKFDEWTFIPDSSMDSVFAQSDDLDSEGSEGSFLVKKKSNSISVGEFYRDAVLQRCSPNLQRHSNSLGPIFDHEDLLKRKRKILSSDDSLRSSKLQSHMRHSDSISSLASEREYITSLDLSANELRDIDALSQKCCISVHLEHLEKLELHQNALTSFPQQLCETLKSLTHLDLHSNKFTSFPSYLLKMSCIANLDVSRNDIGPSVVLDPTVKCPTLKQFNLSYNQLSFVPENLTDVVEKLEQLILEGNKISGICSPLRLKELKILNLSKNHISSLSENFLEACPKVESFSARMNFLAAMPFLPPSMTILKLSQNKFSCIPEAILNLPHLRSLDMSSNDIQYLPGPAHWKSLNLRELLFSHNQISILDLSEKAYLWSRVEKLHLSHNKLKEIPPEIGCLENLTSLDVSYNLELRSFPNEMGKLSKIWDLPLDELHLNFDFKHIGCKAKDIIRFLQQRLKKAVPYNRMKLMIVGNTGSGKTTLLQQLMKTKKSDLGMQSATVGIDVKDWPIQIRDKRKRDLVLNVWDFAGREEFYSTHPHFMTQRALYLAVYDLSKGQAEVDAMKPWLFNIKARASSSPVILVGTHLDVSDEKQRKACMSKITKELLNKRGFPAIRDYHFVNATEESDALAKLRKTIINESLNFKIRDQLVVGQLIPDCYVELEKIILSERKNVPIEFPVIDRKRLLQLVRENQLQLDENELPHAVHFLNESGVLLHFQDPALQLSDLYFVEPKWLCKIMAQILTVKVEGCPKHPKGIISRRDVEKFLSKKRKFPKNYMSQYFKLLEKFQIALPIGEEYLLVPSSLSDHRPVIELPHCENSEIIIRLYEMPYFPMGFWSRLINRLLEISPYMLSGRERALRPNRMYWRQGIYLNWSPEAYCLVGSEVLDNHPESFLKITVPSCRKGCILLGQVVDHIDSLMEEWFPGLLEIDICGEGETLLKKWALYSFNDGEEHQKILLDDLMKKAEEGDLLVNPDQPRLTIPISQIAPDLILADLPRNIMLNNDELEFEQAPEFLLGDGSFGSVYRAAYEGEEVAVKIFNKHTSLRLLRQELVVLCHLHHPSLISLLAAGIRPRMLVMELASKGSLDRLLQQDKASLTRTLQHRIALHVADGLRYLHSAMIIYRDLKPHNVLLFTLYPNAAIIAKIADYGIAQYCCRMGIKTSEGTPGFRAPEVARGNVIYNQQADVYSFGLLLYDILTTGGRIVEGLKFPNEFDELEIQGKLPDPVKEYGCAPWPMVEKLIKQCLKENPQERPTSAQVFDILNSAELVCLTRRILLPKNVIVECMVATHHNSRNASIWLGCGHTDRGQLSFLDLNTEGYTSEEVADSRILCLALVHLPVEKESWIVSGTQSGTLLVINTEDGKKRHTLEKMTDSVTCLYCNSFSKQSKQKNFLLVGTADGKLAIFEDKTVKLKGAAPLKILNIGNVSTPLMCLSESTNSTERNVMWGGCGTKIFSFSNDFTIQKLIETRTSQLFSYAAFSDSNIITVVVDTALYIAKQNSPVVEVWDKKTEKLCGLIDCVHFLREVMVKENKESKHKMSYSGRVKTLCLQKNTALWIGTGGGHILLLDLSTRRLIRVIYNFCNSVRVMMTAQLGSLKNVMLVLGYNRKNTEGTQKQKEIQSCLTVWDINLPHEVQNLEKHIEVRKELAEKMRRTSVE

Compound | IC50
C[C@H]1COCCOC[C@H](C)n2cc(cn2)-c2n[nH]c3ccc(cc23)O1 [Example 101, (6S,13S)-6,13-dimethyl-8,11,14-trioxa-4,5,19,20-tetraazatetracyclo[13.5.2.1^2,5.0^18,21]tricosa-1(20),2(23),3,15(22),16,18(21)-hexaene] | < 10 nM
c1cc2[nH]nc3c2cc1OCCCCOCCn1cc-3cn1 [Example 102, 8,13-dioxa-4,5,18,19-tetraazatetracyclo[12.5.2.1^2,5.0^17,20]docosa-1(19),2(22),3,14(21),15,17(20)-hexaene] | < 10 nM
C[C@@H]1CCOCC[C@H](C)n2ncc(n2)-c2n[nH]c3ccc(cc23)O1 [Example 103, (6S,12R)-6,12-dimethyl-9,13-dioxa-4,5,18,19,22-pentaazatetracyclo[12.5.2.1^2,5.0^17,20]docosa-1(19),2(22),3,14(21),15,17(20)-hexaene] | < 10 nM
c1cc2[nH]nc3c2cc1OCCOCCCCn1cc-3cn1 [Example 104, 10,13-dioxa-4,5,18,19-tetraazatetracyclo[12.5.2.1^2,5.0^17,20]docosa-1(19),2(22),3,14(21),15,17(20)-hexaene] | < 10 nM
[2H]C1([2H])OCCn2cc(cn2)-c2n[nH]c3ccc(cc23)OC[C@H](C)OC1([2H])[2H] [Example 107, (12S)-12-methyl(9,9,10,10-^2H4)-8,11,14-trioxa-4,5,19,20-tetraazatetracyclo [13.5.2.1^2,5.0^18,21]tricosa-1(20),2(23),3,15,17,21-hexaene] | < 10 nM
c1cc2[nH]nc3c2cc1OCCCCCOCCn1cc-3cn1 [Example 108, 8,14-dioxa-4,5,19,20-tetraazatetracyclo[13.5.2.1^2,5.0^18,21]tricosa-1(20),2(23), 3,15(22),16,18(21)-hexaene] | < 10 nM
C[C@@H]1CCOCC(F)(F)COc2ccc3[nH]nc(c3c2)-c2cnn1c2 [Example 109, (6R)-11,11-difluoro-6-methyl-9,13-dioxa-4,5,18,19-tetraazatetracyclo [12.5.2.1^2,5.0^17,20]docosa-1(19),2(22),3,14(21),15,17(20)-hexaene] | < 100 nM
[2H]C1([2H])OCCO[C@@H](C)COc2ccc3[nH]nc(c3c2)-c2cnn(c2)C1([2H])[2H] [Example 110, (12S)-12-methyl(6,6,7,7-2H4)-8,11,14-trioxa-4,5,19,20-tetraazatetracyclo [13.5.2.1^2,5.0^18,21]tricosa-1(20),2(23),3,15(22),16,18(21)-hexaene] | < 10 nM
FC1(F)COCCCn2cc(cn2)-c2n[nH]c3ccc(cc23)OC1 [Example 111, 11,11-difluoro-9,13-dioxa-4,5,18,19-tetraazatetracyclo[12.5.2.1^2,5.0^17,20] docosa-1(19),2(22),3,14(21),15,17(20)-hexaene] | < 100 nM
C[C@H]1COc2ccc3[nH]nc(c3c2)-c2cnn(c2)CCCCCO1 [Example 112, (12S)-12-methyl-11,14-dioxa-4,5,19,20-tetraazatetracyclo[13.5.2.1^2,5.0^18,21] tricosa-1(20),2(23),3,15(22),16,18(21)-hexaene] | < 10 nM
C[C@H]1OCCOCCn2cc(cn2)-c2n[nH]c3ccc(cc23)O[C@@H]1C [Example 113, (12R,13R)-12,13-dimethyl-8,11,14-trioxa-4,5,19,20-tetraazatetracyclo [13.5.2.1^2,5.0^18,21]tricosa-1(20),2(23),3,15(22),16,18(21)-hexaene] | < 10 nM
C[C@@H]1OCCOCCn2cc(cn2)-c2n[nH]c3ccc(cc23)O[C@H]1C [Example 114, (12S,13S)-12,13-dimethyl-8,11,14-trioxa-4,5,19,20-tetraazatetracyclo [13.5.2.1^2,5.0^18,21]tricosa-1(20),2(23),3,15(22),16,18(21)-hexaene] | < 10 nM
c1cc2[nH]nc3c2cc1OCCCCOCCn1ncc-3n1 [Example 115, 8,13-dioxa-4,5,18,19,22-pentaazatetracyclo[12.5.2.1^2,5.0^17,20]docosa-1(19),2(22),3,14(21),15,17(20)-hexaene] | < 10 nM
C[C@@H]1CCO[C@@H](C)CCOc2ccc3[nH]nc(c3c2)-c2cnn1c2 [Example 116, (6R,10S)-6,10-dimethyl-9,13-dioxa-4,5,18,19-tetraazatetracyclo[12.5.2.1^2,5.0^17,20]docosa-1(19),2(22),3,14(21),15,17(20)-hexaene] | < 100 nM
C[C@@H]1C[C@@H](C)n2cc(cn2)-c2n[nH]c3ccc(cc23)OCCCO1 [Example 117, (6R,8R)-6,8-dimethyl-9,13-dioxa-4,5,18,19-tetraazatetracyclo[12.5.2.1^2,5.0^17,20] docosa-1(19),2(22),3,14(21),15,17(20)-hexaene] | < 100 nM
FC1(F)COCCCOc2ccc3[nH]nc(c3c2)-c2cnn(c2)C1 [Example 118, 7,7-difluoro-9,13-dioxa-4,5,18,19-tetraazatetracyclo[12.5.2.1^2,5.0^17,20] docosa-1(19),2(22),3,14(21),15,17(20)-hexaene] | < 10 nM

Compound | IC50
C[C@H]1COCCCOCc2nc(cn2C)-c2n[nH]c3ccc(cc23)O1 [Example 119, (13S)-4,13-dimethyl-7,11,14-trioxa-4,19,20,23-tetraazatetracyclo [13.5.2.1^2,5.0^18,21]tricosa-1(20),2,5(23),15(22),16,18(21)-hexaene] | < 1000 nM
C[C@@H]1CCOCC(F)(F)Cn2cc(cn2)-c2n[nH]c3ccc(cc23)O1 [Example 120, (12R)-7,7-difluoro-12-methyl-9,13-dioxa-4,5,18,19-tetraazatetracyclo [12.5.2.1^2,5.0^17,20]docosa-1(19),2(22),3,14(21),15,17(20)-hexaene] | < 10 nM
C1=C/COCCOc2ccc3[nH]nc(c3c2)-c2cnn(c2)CC/1 [Example 121, (8E)-11,14-dioxa-4,5,19,20-tetraazatetracyclo[13.5.2.1^2,5.0^18,21]tricosa-1(20),2(23),3,8,15(22),16,18(21)-heptaene] | < 10 nM
C[C@H]1CCCOCCn2ncc(n2)-c2n[nH]c3ccc(cc23)O1 [Example 122, (12S)-12-methyl-8,13-dioxa-4,5,18,19,22-pentaazatetracyclo[12.5.2.1^2,5.0^17,20]docosa-1(19),2(22),3,14(21),15,17(20)-hexaene] | < 10 nM
C[C@@H]1CCOc2ccc3[nH]nc(c3c2)-c2cnn(c2)[C@H](C)CCO1 [Example 123, (6R,10R)-6,10-dimethyl-9,13-dioxa-4,5,18,19-tetraazatetracyclo[12.5.2.1^2,5.0^17,20]docosa-1(19),2(22),3,14(21),15,17(20)-hexaene] | < 10 nM
C[C@@H]1CCCOCCn2ncc(n2)-c2n[nH]c3ccc(cc23)O1 [Example 124, (12R)-12-methyl-8,13-dioxa-4,5,18,19,22-pentaazatetracyclo [12.5.2.1^2,5.0^17,20]docosa-1(19),2(22),3,14(21),15,17(20)-hexaene] | < 10 nM
C[C@@H]1CCOCCCc2ncn(n2)-c2n[nH]c3ccc(cc23)O1 [Example 125, (12R)-12-methyl-9,13-dioxa-2,4,18,19,22-pentaazatetracyclo[12.5.2.1^2,5.0^17,20]docosa-1(19),3,5(22),14(21),15,17(20)-hexaene] | < 10 nM
C[C@@H]1C[C@@H](C)Oc2ccc3[nH]nc(c3c2)-c2cnn(c2)CCCO1 [Example 126, (10R,12R)-10,12-dimethyl-9,13-dioxa-4,5,18,19-tetraazatetracyclo [12.5.2.1^2,5.0^17,20]docosa-1(19),2(22),3,14(21),15,17(20)-hexaene] | < 10 nM
C[C@@H]1CCn2ncc(n2)-c2n[nH]c3ccc(cc23)O[C@H](C)CCO1 [Example 127, (8R,12R)-8,12-dimethyl-9,13-dioxa-4,5,18,19,22-pentaazatetracyclo [12.5.2.1^2,5.0^17,20]docosa-1(19),2(22),3,14(21),15,17(20)-hexaene] | < 10 nM
C[C@@H]1CCCOC[C@@H](C)n2cc(cn2)-c2n[nH]c3ccc(cc23)O1 [Example 128, (6R,12R)-6,12-dimethyl-8,13-dioxa-4,5,18,19-tetraazatetracyclo[12.5.2.1^2,5.0^17,20]docosa-1(19),2(22),3,14(21),15,17(20)-hexaene] | < 10 nM
C[C@H]1COc2ccc3[nH]nc(c3c2)-c2cnn(c2)CCCOCCO1 [Example 129, (13S)-13-methyl-9,12,15-trioxa-4,5,20,21-tetraazatetracyclo[14.5.2.1^2,5.0^19,22]tetracosa-1(21),2(24),3,16(23),17,19(22)-hexaene] | < 100 nM
C[C@@H]1COCCCCn2ncc(n2)-c2n[nH]c3ccc(cc23)O1 [Example 130, (12R)-12-methyl-10,13-dioxa-4,5,18,19,22-pentaazatetracyclo[12.5.2.1^2,5.0^17,20] docosa-1(19),2(22),3,14(21),15,17(20)-hexaene] | < 100 nM
C[C@@H]1CCOCCOCCn2cc(cn2)-c2n[nH]c3ccc(cc23)O1 [Example 131, (14R)-14-methyl-8,11,15-trioxa-4,5,20,21-tetraazatetracyclo[14.5.2.1^2,5.0^19,22]tetracosa-1(21),2(24),3,16(23),17,19(22)-hexaene] | < 10 nM
C[C@@H]1C[C@H](C)OCCCOc2ccc3[nH]nc(c3c2)-c2cnn1c2 [Example 132, (6R,8S)-6,8-dimethyl-9,13-dioxa-4,5,18,19-tetraazatetracyclo[12.5.2.1^2,5.0^17,20]docosa-1(19),2(22),3,14(21),15,17(20)-hexaene] | < 100 nM
C[C@@H]1CCOCCOCCn2ncc(n2)-c2n[nH]c3ccc(cc23)O1 [Example 133, (14R)-14-methyl-8,11,15-trioxa-4,5,20,21,24-pentaazatetracyclo[14.5.2.1^2,5.0^19,22]tetracosa-1(21),2(24),3,16(23),17,19(22)-hexaene] | < 100 nM
O=C1COc2cccc(c2)-c2n[nH]c3ccc(cc23)OCCCN1 [Example 134, 7,14-dioxa-10,19,20-triazatetracyclo[13.5.2.1^2,6.0^18,21]tricosa-1(20),2(23), 3,5,15(22),16,18(21)-heptaen-9-one] | < 100 nM
